Test results as given in ChEMBL document CHEMBL3272348, “Synthesis and pharmacology of 2,9alpha-dimethyl-2'-hydroxy-6,7-benzomorphan” (J Med Chem, 1976).
Calls of active or inactive are those of the source. No cut-off for these calls is given here.

Key:
[1] = system: Rhesus monkey; test: Precipitation of abstinence syndrome of long duration in morphine-dependent monkey assessed as movement within cage; format: ADME, organism-based, Macaca mulatta; conditions: in vivo
[2] = system: Rhesus monkey; test: Narcotic antagonist activity in morphine-dependent monkey; format: functional, organism-based; conditions: Macaca mulatta
[3] = system: Rhesus monkey; test: Precipitation of abstinence syndrome of long duration in morphine-dependent monkey assessed as hyperexcitability; format: ADME, organism-based, Macaca mulatta; conditions: in vivo
[4] = system: Rhesus monkey; test: Precipitation of abstinence syndrome of long duration in morphine-dependent monkey assessed as abdominal cramps; format: ADME, organism-based, Macaca mulatta, Abdomen; conditions: in vivo
[5] = system: Rhesus monkey; test: Precipitation of abstinence syndrome of long duration in morphine-dependent monkey assessed as irritability; format: ADME, organism-based, Macaca mulatta; conditions: in vivo
[6] = system: Mus musculus; test: Analgesic activity in sc dosed white mouse by hot plate method; format: functional

| SMILES | Activity [1] | Activity [2] | Activity [3] | Activity [4] | Activity [5] | ED50 [6] [mg/kg] |
| --- | --- | --- | --- | --- | --- | --- |
| C[C@@H]1C2Cc3ccc(O)cc3[C@@H]1CCN2C | Non-toxic | Active | Non-toxic | Toxic | Toxic | 1.1 |
| C[C@H]1C2Cc3ccc(O)cc3[C@@H]1CCN2C | Non-toxic | – | Non-toxic | Toxic | Toxic | 4.3 |
| CN1CC[C@@H]2CC1Cc1ccc(O)cc12 | – | Active | – | – | – | – |
| CN1CC[C@]23c4c5ccc(O)c4O[C@H]2[C@@H](O)C=C[C@H]3[C@H]1C5 [MORPHINE] | – | – | – | – | – | 1.2 |
| CCOC(=O)C1(c2ccccc2)CCN(C)CC1 [MEPERIDINE] | – | – | – | – | – | 4.5 |
